From the Biogen ADME set (Fang et al. 2023)
Converted amounts (≈) assume the structure as drawn.

Settings: for aqueous solubility: pH 6.8

MDR1-MDCK efflux ratio | intrinsic clearance, human liver microsomes [mL/min/kg] | intrinsic clearance, rat liver microsomes [mL/min/kg] | aqueous solubility [µg/mL] | fraction unbound, human plasma | fraction unbound, rat plasma | SMILES
4.24 | 5.9 | 71.9 |  |  |  | O=C(Cn1cc(NCc2cccc(Cl)c2)cn1)N1CCOCC1
0.969 | 19.7 | 505 | 42.5 (≈ 145 µM) |  |  | CN(Cc1cnn(C)c1)c1ncnc2c1oc1ccccc12
9.17 | 373 | 578 | 14.3 (≈ 32 µM) | 0.0412 | 0.0729 | Cc1ncsc1C(=O)N1CCCCC1c1nc(N)ncc1-c1cccc(C(F)(F)F)c1 (stereo not drawn)
 |  |  | 0.3 (≈ 1.14 µM) |  |  | N#Cc1c(N2CCCC2)oc2nc3ccccc3nc12
 | ≤ 4.74 | 23.5 | 48.9 (≈ 148 µM) |  |  | CCN(CC)CC(=O)N1CCC(n2c(=O)[nH]c3ccccc32)CC1
8 | 126 | 827 | 10 (≈ 26.4 µM) |  |  | NC(=O)c1ccccc1NC(=O)CN1CCCC(c2nc3ccccc3o2)C1 (stereo not drawn)
0.69 | 200 | 1640 | 37.8 (≈ 108 µM) |  |  | O=C(NCC1=CCCN(Cc2cc(F)ccc2Cl)C1)c1ccco1
1.18 | 45 | 845 | 58.4 (≈ 163 µM) |  |  | O=C(c1sc(N2CCOCC2)nc1-c1ccccc1)N1CCCCC1
 | 131 | 140 | 35.3 (≈ 142 µM) |  |  | O=C(Nc1ccccn1)c1cccc2ccccc12
0.698 | 15.4 | 274 | 10.5 (≈ 29.4 µM) |  |  | O=C(c1cc(-c2cccc(Cl)c2)on1)N1CCC(n2cccc2)CC1
 |  |  | 44.4 (≈ 212 µM) |  |  | COc1nc(C#N)c(N2CCOCC2)o1
0.561 | 21.4 | 916 | 26.4 (≈ 109 µM) |  |  | CC1CCN(C(=O)c2n[nH]c3ccccc23)CC1
7.18 | 44.4 | 808 |  |  |  | CCCn1cc(NC(=O)Nc2ccc(N3CCSCC3)cc2)cn1
1.69 | 24.2 | 1910 |  |  |  | C[C@H]1CN2C[C@H](O)C[C@@H]2CN1Cc1cccc2ccccc12
0.861 | 48.5 | 600 |  |  |  | O=C(c1cc(-c2ccc(F)cc2)on1)N1CC[C@H](Oc2ccccc2F)[C@@H](O)CC1
3.79 | 10.9 | 450 | 118 (≈ 375 µM) |  |  | O=C1CC[C@H](O)[C@@H](c2cccc(Cl)c2)N1Cc1ccccc1
 | 34.9 | 132 | 47.6 (≈ 179 µM) |  |  | O=C(Nc1cccc2cnccc12)c1cccc(F)c1
12.8 | ≤ 4.74 | ≤ 10.7 | 54.6 (≈ 161 µM) |  |  | O=C(Cn1c(-c2ccc(F)cc2)nc2ccccc21)N1CCOCC1
 | 157 | 721 |  |  |  | Nc1ncccc1OCc1cccc(Cl)c1
 | 7.88 | 567 |  |  |  | O=C(NCC1(Sc2ccccc2)CC1)c1ccc(=O)[nH]n1
 | 68.9 | 121 |  |  |  | N#Cc1cc(N2CC(CO)C2)nc2ccc(Cl)cc12
2.46 | 16.6 | 1260 |  |  |  | Cc1ccc2oc(C(=O)N3CC[C@H](O)[C@@H](N4CCOCC4)CC3)cc2c1
 | 643 | 4390 | 45 (≈ 112 µM) |  |  | O=C(C1CC1)N1CCCC(C(=O)N2CCc3ccccc3C2Cc2ccccc2)C1 (stereo not drawn)
 | 250 | 891 | 57.5 (≈ 143 µM) | 0.127 | 0.0519 | CNC(=O)C1(Cc2ccc(-c3ccncc3)cc2)CCN(Cc2cccc(F)c2)C1 (stereo not drawn)
 |  |  | 31.3 (≈ 132 µM) |  |  | CS(=O)(=O)Cc1cc(-c2ccccc2)on1
0.493 | 52.6 | 656 |  |  |  | OC1CCN(c2nccc(-c3cccs3)n2)CC1
1.18 | 371 | 4650 |  |  |  | CCC(CC)N1CC[C@H](O)[C@@](O)(COc2cc(C)ccc2Cl)C1
 |  |  | 5.6 (≈ 21.2 µM) |  |  | Cc1ccc(NC(=O)Cc2c[nH]c3ccccc23)cc1

Further lines, the compound ahead of its results:

SMILES | MDR1-MDCK efflux ratio | intrinsic clearance, human liver microsomes [mL/min/kg] | intrinsic clearance, rat liver microsomes [mL/min/kg] | aqueous solubility [µg/mL] | fraction unbound, human plasma | fraction unbound, rat plasma
CCOc1ccccc1CNCCc1c[nH]c2ccccc12 | 3.34 | 127 | 2170 | 39.6 (≈ 135 µM) |  | 
CC(c1nnc(-c2cccs2)o1)N1CCC(n2c(=O)[nH]c3ccccc32)CC1 (stereo not drawn) | 21.1 | 18.1 | 273 | 56.9 (≈ 144 µM) |  | 
O/N=C1/CCCc2c1cnc1ncnn21 | 1.67 | ≤ 4.74 | ≤ 10.7 |  |  | 
COc1ccc(-c2[nH]c3ncccc3c2CN(C)CCOc2ccccc2OC)cc1 | 3.88 |  |  | 0.3 (≈ 0.719 µM) |  | 
COC(=O)N[C@H](C)CNc1nccc(-c2cn(C(C)C)nc2-c2cc(Cl)cc(NS(C)(=O)=O)c2F)n1 | 129 | 14.7 | 66.5 |  |  | 
CC(=O)N1CCN(Cc2nc(O)cc(C(F)(F)F)n2)C(C)(C)C1 | 26.6 | ≤ 4.74 | ≤ 10.7 |  |  | 
CCCc1cc(CNS(=O)(=O)c2cc(-c3cnc(C)o3)ccc2C)on1 | 7.7 | 392 | 2500 |  |  | 
Cc1cc(N2CCC(C(=O)NC3CCCCC3)CC2)nc(-c2ccncc2)n1 |  | 67 | 193 |  |  | 
COCCNc1c(C)c(C)nc2cc(-c3nccn3C)nn12 | 1.53 | 21.1 | 79.6 |  |  | 
Nc1ccc2[nH]c(CCc3ccccc3)nc2c1 | 1.27 | ≤ 4.74 | 28.8 | 36.3 (≈ 153 µM) |  | 
CN(C)C(=O)C(C)(C)NC(=O)OC(C)(C)C | 1.37 | ≤ 4.74 | 24.3 |  |  | 
COc1ccc(Cc2nnn[nH]2)cc1F |  | ≤ 4.74 | ≤ 10.7 |  |  | 
NC(CO)(CO)CCc1ccc(Sc2cccc(OCc3ccccc3)c2)cc1Cl |  | 6.33 | 14.2 |  |  | 
Cc1ccc2cccc(OCC(=O)N(C)c3ccccc3)c2n1 | 1.52 | 126 | 482 | 55 (≈ 179 µM) |  | 
Cc1nnc(N2CC[C@H](O)C2)c(C#N)c1C | 1.3 | ≤ 4.74 | ≤ 10.7 | 31.2 (≈ 143 µM) |  | 
Cc1ccc(C)c(OCCN(C)C(=O)c2ccc3c(c2)nnn3C)c1 | 1.23 | 59.5 | 1030 | 29.2 (≈ 86.4 µM) |  | 
Cc1cnccc1-c1cnc(N(C)C)nc1-c1ccco1 | 0.636 | 140 | 2250 |  |  | 

SMILES | MDR1-MDCK efflux ratio | intrinsic clearance, human liver microsomes [mL/min/kg] | intrinsic clearance, rat liver microsomes [mL/min/kg] | aqueous solubility [µg/mL] | fraction unbound, human plasma | fraction unbound, rat plasma
CC(=O)Nc1ncc(C(=O)O)s1 |  |  |  |  | 0.66 | 0.715
CCOc1cc(N(C)CC2CCN(C)CC2)ncn1 | 1.55 | 20.1 | 561 |  |  | 
CCCCCCCCc1ccc2c(c1)CC[C@@H](C(N)(CO)CO)C2 |  |  |  | 0.81 (≈ 2.43 µM) |  | 
Cc1ccc([C@@H]2N[C@@H](Cc3ccccc3)C(=O)N2C)o1 | 0.764 | ≤ 4.74 | 151 | 53.3 (≈ 197 µM) |  | 
COc1cc(-c2ccc(Cn3nc(C)cc3C)cn2)cc(OC)c1OC | 1.65 | 46.1 | 345 |  |  | 
c1ccc(-c2nn3c(-c4ccco4)nnc3c3ccccc23)cc1 |  |  |  | 0.17 (≈ 0.544 µM) |  | 
COc1ccc(CN2CCC(c3nc(C(C)C)no3)CC2)c(F)c1 | 0.777 | 35 | 1710 | 47.1 (≈ 141 µM) |  | 
CC(C)c1nc2c(n1C)CCN(c1ncnc3ccsc13)C2 | 3.28 | 21.7 | 567 | 54.4 (≈ 173 µM) |  | 
CC(C)(C)OC(=O)N1CC=C(CCC(=O)NO)C1 |  |  |  | 44 (≈ 172 µM) |  | 
Cn1ncnc1COc1nn2c(-c3c(F)cccc3F)nnc2cc1C1CCC1 | 73.4 | ≤ 4.74 | 40.8 | 41.4 (≈ 104 µM) |  | 
C=CCN(C)CCCCCCOc1ccc(C(=O)c2ccc(Br)cc2)c(F)c1 |  | 31.1 | 320 | 21.4 (≈ 47.7 µM) |  | 
Cc1cc2nc(Sc3nnc(C)n3C)c3ccccc3n2n1 | 11.3 | ≤ 4.74 | 35 |  |  | 
Cc1ccc2c(CC(=O)N(C)CC(N)=O)coc2c1C |  |  |  | 34.9 (≈ 127 µM) |  | 
N#CCCCN1CCN(c2cc(C#N)ccn2)CC1 | 0.56 | ≤ 4.74 | 180 | 41.2 (≈ 162 µM) |  | 
Cc1ncc(C)n2nc([C@@H]3C[C@H]3c3nc4c5cccnc5ccn4c3C)nc12 | 1.4 | 16.1 | 82.1 |  |  | 
COc1cc2c(NC3CCN(C(C)C)CC3)nc(N3CCC(F)(F)CC3)nc2cc1OCCCN1CCCC1 |  | ≤ 4.74 | 26.3 | 64.8 (≈ 119 µM) |  | 
